Read-outs that look alike come from different tables or passages of the source.
Legend:
[1] = test system: HCV nonstructural protein NS5A or NS3 in 9–13 replicon cells; assay: Quantitative Western blot assay; assay type: cell-based, Hepatitis C virus; settings: 9–13 replicon cells, NS5A or NS3 Western blot; read-out: Western IC50
Method: Alternatively, the inhibitory activity of the compounds can be confirmed using a quantitative Western immunoblot assay utilizing antibodies specific for HCV non-structural proteins, such as NS3, NS4A NS5A and NS5B. In one embodiment of this assay, replicon cells are treated with varying concentrations of test compound to determine the concentration of test compound that yields a 50% reduction in the amount of a non-structural protein produced as compared to a control sample (IC50). A single non-structural protein may be quantified or multiple non-structural proteins may be quantified. Antibodies suitable for carrying out such immunoblot assays are available commercially (e.g., from BIODESIGN International, Saco, Me.).
Certain exemplary compounds of the invention were also tested for their ability to inhibit HCV replication using a quantitative Western blot analysis with antibodies specific for the HCV nonstructural protein NS5A or NS3. Actively dividing 9–13 replicon cells were seeded into Swell plates at a density of 1×10^5 cells/well in a volume of 2 ml/well and incubated at 37° C. and 5% CO2 for 24 hours. Various concentrations of test compounds (in a volume of 10 ul) were added to the wells and the cells incubated for another 48 hours. Protein samples were prepared from the cultured cells, resolved on a SDS-PAGE gel and transferred to a nitrocellulose membrane. The membrane was blocked with 5% non-fat milk in PBS for 1 hour at room temperature. Primary antibody (anti NS5A antibody; BIODESIGN International, Saco, Me. or anti NS3 antibody, Rigel) incubation was performed for 1 hour at room temperature, after which the membrane was washed 3 times (for 15 min per time) with PBST (PBS plus 0.1% Tween 20). Horseradish peroxidase conjugated secondary antibody incubation was performed for 1 hour at room temperature and the membrane was washed 3 times (for 15 min per time) with PBST. The membrane was then soaked in substrate solution (Pierce) and exposed to a film or quantified using an imager. In this assay, the amount of test compound that yielded a 50% reduction in the amount of NS5A or NS3 protein translated as compared to a control sample (IC50) was determined.
In TABLE 1, a value of “+” indicates an IC50 of 10 μM or less in the specified assay; a value of “−” indicates an IC50 of greater than 10 μM in the specified assay.

[2] = test system: HCV replicon (5-2 Luc replicon-comprising cells); assay: HCV replicon assay (luciferase); assay type: cell-based, Hepatitis C virus; settings: 5-2 Luc replicon cells, luciferase readout, read-out: Replicon IC50
Outline: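 Huh7-derived 5-2 Luc replicon cells seeded 24 h at 37 °C, then exposed to compound at various concentrations for another 24 h. Luciferase quantified by Bright-Glo luminescence; IC50 = concentration giving 50% reduction in luciferase activity; reported as +/− at a 10 μM cut-off.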

[3] = Cytotoxicity assay (Cell Titer Glo); assay type: cell-based; settings: human; 48 hr with compound, ATP-dependent Cell Titer Glo assay; read-out: IC50 in cytotoxicity assay (number of viable cells)
Method: Compounds 67, 167, 169, 13, 1, 145, 29, 119, 63, 31, 39, 103, 123, 121, 97, 129, 79, 111, 85, 89, 109, 127, 131, 95, 47, 57, 69, 165, 161, 163, 3, 137, 15, 141, 41, 53, 33, 113, 93, 105, 77, 91, 81, 83, 35, 27, 65, 7, 135, 51, 139, 51, 49, 143, 5, 149, 11, 37, 21, 45, 61, 75, 23, 125, 73, 43, 171 and 101 were tested in a cytotoxicity assay with liver cells including an HCV replicon (5-2 Luc cells, 9–13 cells or Huh-7 cells). In the assay, cells were seeded onto 96-well plates (approx. 7500 cells/well in a volume of 90 μl) and grown for 24 hr at 37° C. On day 2, various concentrations of test compound (in a volume of 10 μl) were added to the wells and the cells were grown for an additional 48 hr at 37° C. On day 4, an ATP-dependent R-Luciferase assay (Cell Titer Glo assay) was performed to determine the number of viable cells.

Row | SMILES | IC50 [1] [µM] | IC50 [2] [µM] | IC50 ([2]; Hepatitis C virus) [µM] | IC50 at 48 h [3] [µM]
1 | O=C(Nc1cccc(-c2cc(-c3c(Cl)cccc3N3CCOCC3)no2)c1)C(Cl)Cl [Compound 7, 2,2-Dichloro-N-[3-[3-[2-chloro-6-(N-morpholino)phenyl]-5-isoxazolyl]phenyl]Acetamide] | < 10 |  |  | 
2 | CSc1cccc(F)c1-c1cc(-c2cccc(NC(=O)C(Cl)Cl)c2)on1 [Compound 11, 2,2-Dichloro-N-[3-[3-(2-fluoro-6-thiomethylphenyl)-5-isoxazolyl]phenyl]Acetamide] | < 10 | < 10 |  | 
3 | Cc1cccc(C(F)(F)F)c1-c1cc(-c2cccc(NC(=O)C(Cl)Cl)c2)on1 [Compound 85, 2,2-Dichloro-N-[3-[3-(2-methyl-6-trifluoromethylphenyl)-5-isoxazolyl]phenyl]Acetamide] |  |  | < 10 | > 10
4 | O=C(Nc1cccc(-c2cc(-c3c(C4CC4)cccc3C(F)(F)F)no2)c1)C(Cl)Cl [Compound 89, 2,2-Dichloro-N-[3-[3-(2-cyclopropyl-6-trifluoromethylphenyl)-5-isoxazolyl]phenyl]Acetamide] |  |  | < 10 | > 10
5 | COc1cccc(C)c1-c1cc(-c2cccc(NC(=O)C(Cl)Cl)c2)on1 [Compound 91, 2,2-Dichloro-N-[3-[3-(2-methoxy-6-methylphenyl)-5-isoxazolyl]phenyl]Acetamide] |  |  | < 10 | > 10
6 | CC(C)c1cccc(C(F)(F)F)c1-c1cc(-c2cccc(NC(=O)C(Cl)Cl)c2)on1 [Compound 93, 2,2-Dichloro-N-[3-[3-(2-isopropyl-6-trifluoromethylphenyl)-5-isoxazolyl]phenyl]Acetamide] |  |  | < 10 | > 10
7 | O=C(Nc1cccc(-c2cc(-c3c(Cl)cccc3C3CCCC3)no2)c1)C(Cl)Cl [Compound 97, 2,2-Dichloro-N-[3-[3-(2-chloro-6-cyclopentylphenyl)-5-isoxazolyl]phenyl]Acetamide] |  |  | < 10 | > 10
8 | CCCCc1cccc(Cl)c1-c1cc(-c2cccc(NC(=O)C(Cl)Cl)c2)on1 [Compound 103, 2,2-Dichloro-N-[3-[3-(2-chloro-6-n-butylphenyl)-5-isoxazolyl]phenyl]Acetamide] |  |  | < 10 | > 10
9 | O=C(Nc1cccc(-c2cc(-c3c(C4CCCC4)cccc3C(F)(F)F)no2)c1)C(Cl)Cl [Compound 105, 2,2-Dichloro-N-[3-[3-(2-cyclopentyl-6-trifluoromethylphenyl)-5-isoxazolyl]phenyl]Acetamide] |  |  | < 10 | > 5
10 | CN1CCN(c2cccc(C(F)(F)F)c2-c2cc(-c3cccc(NC(=O)C(Cl)Cl)c3)on2)CC1 [Compound 109, 2,2-Dichloro-N-[3-[3-[2-trifluoromethyl-6-(4-methylpiperazino)phenyl]-5-isoxazolyl]-phenyl]Acetamide] |  |  | < 10 | > 10
11 | O=C(Nc1cccc(-c2cc(-c3c(Cl)cccc3C3CCCCC3)no2)c1)C(Cl)Cl [Compound 111, 2,2-Dichloro-N-[3-[3-(2-chloro-6-cyclohexylphenyl)-5-isoxazolyl]phenyl]Acetamide] |  |  | < 10 | > 10
12 | O=C(Nc1cccc(-c2cc(-c3ccccc3OC(F)(F)F)no2)c1)C(Cl)Cl [Compound 113, 2,2-Dichloro-N-[3-[3-(2-trifluoromethoxyphenyl)-5-isoxazolyl]phenyl]Acetamide] |  |  | < 10 | > 10
13 | CC(C)Oc1ccccc1-c1cc(-c2cccc(NC(=O)C(Cl)Cl)c2)on1 [Compound 119, 2,2-Dichloro-N-[3-[3-(2-isopropyloxyphenyl)-5-isoxazolyl]phenyl]Acetamide] |  |  | < 10 | > 10
14 | CC(C)c1cccc(C(C)C)c1-c1cc(-c2cccc(NC(=O)C(Cl)Cl)c2)on1 [Compound 121, 2,2-Dichloro-N-[3-[3-(2,6-diisopropylphenyl)-5-isoxazolyl]phenyl]Acetamide] |  |  | < 10 | > 10
15 | COc1ccc(NC(=O)C(Cl)Cl)cc1-c1cc(-c2c(Cl)cccc2Cl)no1 [Compound 127, 2,2-Dichloro-N-[3-[3-(2,6-dichlorophenyl)-5-isoxazolyl]4-methoxyphenyl]Acetamide] |  |  | < 10 | > 10
16 | O=C(Nc1cccc(-c2cc(-c3ccccc3C3CCCC3)no2)c1)C(Cl)Cl [Compound 129, 2,2-Dichloro-N-[3-[3-(2-cyclopentylphenyl)-5-isoxazolyl]phenyl]Acetamide] |  |  | < 10 | > 10
17 | O=C(Nc1cccc(-c2cc(-c3c(Cl)ccc(Cl)c3Cl)no2)c1)C(Cl)Cl [Compound 137, 2,2-Dichloro-N-[3-[3-(2,3,6-trichlorophenyl)-5-isoxazolyl]phenyl]Acetamide] |  |  | > 10 | > 10
18 | O=C(O)c1ccc(Cl)c(-c2cc(-c3cccc(NC(=O)C(Cl)Cl)c3)on2)c1Cl [Compound 139, 2,2-Dichloro-N-[3-[3-(3-carboxy-2,6-dichlorophenyl)-5-isoxazolyl]phenyl]Acetamide] |  |  | > 10 | > 10
19 | O=C(Nc1cccc(-c2cc(-c3cc(C(F)(F)F)ccc3Cl)no2)c1)C(Cl)Cl [Compound 141, 2,2-Dichloro-N-[3-[3-(2-chloro-5-trifluoromethylphenyl)-5-isoxazolyl]phenyl]Acetamide] |  |  | > 10 | > 10
20 | O=C(Nc1cccc(-c2cc(-c3c(Cl)cccc3Cl)no2)c1)C(F)F [Compound 145, 2,2-Difluoro-N-[3-[3-(2,6-dichlorophenyl)-5-isoxazolyl]phenyl]Acetamide] |  |  | > 10 | > 10
21 | Cc1ccc(F)c(-c2cc(-c3cccc(NC(=O)C(Cl)Cl)c3)on2)c1F [Compound 149, 2,2-Dichloro-N-[3-[3-(2,6-difluoro-3-methylphenyl)-5-isoxazolyl]phenyl]Acetamide] |  |  | > 10 | > 10
22 | O=C(Nc1cccc(-c2cc(-c3ccccc3OCc3ccccc3)no2)c1)C(Cl)Cl [Compound 161, 2,2-Dichloro-N-[3-[3-(2-benzyloxyphenyl)-5-isoxazolyl]phenyl]Acetamide] |  |  | > 10 | > 10
23 | Cc1ccc(-c2cc(-c3c(Cl)cccc3Cl)no2)cc1NC(=O)C(Cl)Cl [Compound 165, 2,2-Dichloro-N-[3-[3-(2,6-dichlorophenyl)-5-isoxazolyl]-6-methylphenyl]Acetamide] |  |  | > 10 | > 10
24 | Cc1c(NC(=O)C(Cl)Cl)cccc1-c1cc(-c2c(Cl)cccc2Cl)no1 [Compound 167, 2,2-Dichloro-N-[3-[3-(2,6-dichlorophenyl)-5-isoxazolyl]-2-methylphenyl]Acetamide] |  |  | > 10 | > 10
25 | NC1CCN(c2cccc(Cl)c2-c2cc(-c3cccc(NC(=O)C(Cl)Cl)c3)on2)C1 (stereo not drawn) [Compound 673] | < 10 |  |  | 
26 | CN(C)C(=O)NC1CCN(c2cccc(Cl)c2-c2cc(-c3cccc(NC(=O)C(Cl)Cl)c3)on2)C1 (stereo not drawn) [Compound 675] | < 10 |  |  | 
27 | CS(=O)(=O)NC1CCN(c2cccc(Cl)c2-c2cc(-c3cccc(NC(=O)C(Cl)Cl)c3)on2)C1 (stereo not drawn) [Compound 682] | < 10 |  |  | 
28 | O=C(Nc1cccc(-c2cc(-c3c(Cl)cccc3C(=O)N3CCOCC3)no2)c1)C(Cl)Cl [Compound 689] | < 10 |  |  | 
